The values that follow come from PMC11249776, “Synthesis of Structural ADP-Ribose Analogues as Inhibitors for SARS-CoV-2 Macrodomain 1” (Organic Letters, 2024).

This assay concerns the target T1, SARS-CoV-2 NSP3 macrodomain (Severe acute respiratory syndrome coronavirus 2, UniProt P0DTD1).
T1 construct: SARS-CoV-2 NSP3 macrodomain
Nature of the assay: Mac1 HTRF assay (displacement of ADP-ribose conjugated biotin peptide). The format is binding. The note with it: for Mac1 inhibition / affinity in words: qualitative statement.

As to `C#CC1OC(COP(=O)(O)OP(=O)(O)OCC2OC(n3cnc4c(N)ncnc43)C(O)C2O)C(O)C1O` (stereo not shown) [Compound 5], the IC50 came to 2400 ± 200 nM. On to `COC1OC(COP(=O)(O)OP(=O)(O)OCC2OC(n3cnc4c(N)ncnc43)C(O)C2O)C(O)C1OCc1ccccc1` (stereo not shown) [Compound 6], for which the IC50 is above 200000 nM and the “Mac1 inhibition / affinity in words” value is reported as “poor affinity”.

`[N-]=[N+]=NC1OC(COP(=O)(O)OP(=O)(O)OCC2OC(n3cnc4c(N)ncnc43)C(O)C2O)C(O)C1OCc1ccccc1` (stereo not shown) [Compound 7]: the IC50 was 80000 ± 1700 nM and the “Mac1 inhibition / affinity in words” value is given as “poor affinity”.

As for `COC1OC(COP(=O)(O)OP(=O)(O)OCC2OC(n3cnc4c(N)ncnc43)C(O)C2O)C(F)C1O` (stereo not shown) [Compound 8], the IC50 was above 200000 nM and the “Mac1 inhibition / affinity in words” value was “drastically diminished binding affinity”. For the compound `CON=C1C(COP(=O)(O)OP(=O)(O)OCC2OC(n3cnc4c(N)ncnc43)C(O)C2O)OC(OC)C1O` (stereo not shown) [Compound 9], the IC50 is above 200000 nM.

In turn, `CO[C@H]1O[C@H](COP(=O)(O)OP(=O)(O)OC[C@H]2O[C@@](C#N)(c3ccc4c(N)ncnn34)[C@H](O)[C@@H]2O)[C@@H](O)[C@H]1O` [Compound 10, α-O-methyl-NDPr] came in with an IC50 of 63 ± 5 nM. On the same count and under the same terms, the figure for `N#C[C@@]1(c2ccc3c(N)ncnn23)O[C@H](COP(=O)(O)OP(=O)(O)OC[C@H]2O[C@H](N=[N+]=[N-])[C@H](O)[C@@H]2O)[C@@H](O)[C@H]1O` [Compound 11, α-N3-NDPr] is 30 ± 1.5 nM.

In general, IC50 refers to the concentration needed to halve the response being measured.
